Experimental data from patent US20090264401A1, “SUBSTITUTED PYRIMIDIN-5-CARBOXAMIDES 281” (AstraZeneca AB, priority 2008, published 2009).

Target: T1, human 11βHSD1 enzyme (Homo sapiens, UniProt P28845)
T1 construct: baculovirus expressed N terminal 6-His tagged full length human 11βHSD1 enzyme; 6-His (N); made in house
Assay: 11βHSD1 cortisone to cortisol conversion, competitive HTRF assay
Type: biochemical
Settings: human 11-βHSD; test concentration of 30 μM of compound
Summary of the method: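 Enzyme was baculovirus-expressed, N-terminal 6-His-tagged full-length human 11βHSD1, purified on a copper chelate column. Compounds were added in buffer containing 1% DMSO at 10-fold final concentration.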

T1 sequence (P28845 whole entry): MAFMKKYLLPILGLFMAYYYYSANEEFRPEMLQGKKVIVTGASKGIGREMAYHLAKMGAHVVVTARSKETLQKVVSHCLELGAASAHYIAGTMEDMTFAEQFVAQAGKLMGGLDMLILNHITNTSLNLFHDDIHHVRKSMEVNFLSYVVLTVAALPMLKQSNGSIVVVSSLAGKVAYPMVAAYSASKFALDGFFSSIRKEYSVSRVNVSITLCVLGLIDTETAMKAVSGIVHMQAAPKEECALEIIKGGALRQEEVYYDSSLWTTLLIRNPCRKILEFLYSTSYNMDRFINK

Row | Compound | inhibition at 30 µM
1 | O=C(N[C@H]1C2CC3CC1C[C@@](O)(C3)C2)c1cnc(NC2CCS(=O)(=O)CC2)nc1C1CC1 [Example 68, 4-cyclopropyl-2-[(1,1-dioxidotetrahydro-2H-thiopyran-4-yl)amino]-N-[(2r,5s)-5-hydroxyadamantan-2-yl]pyrimidine-5-carboxamide] | 98.3%
2 | CNc1ncc(C(=O)N[C@H]2C3CC4CC2C[C@@](O)(C4)C3)c(C2CC(F)(F)C2)n1 [Example 154, 4-(3,3-difluorocyclobutyl)-N-[(2r,5s)-5-hydroxyadamantan-2-yl]-2-methylaminopyrimidine-5-carboxamide] | 88%
3 | O=C(N[C@H]1C2CC3CC1C[C@@](O)(C3)C2)c1cnc(NC2CCCC2)nc1C1CC1 [Example 57, 2-(cyclopentylamino)-4-cyclopropyl-N-[(2r,5s)-5-hydroxyadamantan-2-yl]pyrimidine-5-carboxamide] | 102%
4 | O=C(N[C@H]1C2CC3CC1C[C@@](O)(C3)C2)c1cnc(N[C@@H]2CCOC2)nc1C1CCCC1 [Example 142, 4-cyclopentyl-N-[(2r,5s)-5-hydroxyadamantan-2-yl]-2-[[(3R)-oxolan-3-yl]amino]pyrimidine-5-carboxamide] | 99.7%
5 | Nc1ncc(C(=O)N[C@H]2C3CC4CC2C[C@@](O)(C4)C3)c(C2CCCC2)n1 [Example 135, 2-amino-4-cyclopentyl-N-[(2r,5s)-5-hydroxyadamantan-2-yl]pyrimidine-5-carboxamide] | 100%
6 | O=C(N[C@H]1C2CC3CC1C[C@@](O)(C3)C2)c1cnc(N2CCOCC2CO)nc1C1CCC1 (some centres unmarked) [Example 90, 4-cyclobutyl-N-[(2r,5s)-5-hydroxyadamantan-2-yl]-2-[3-(hydroxymethyl)morpholin-4-yl]pyrimidine-5-carboxamide] | 100%
7 | O=C(N[C@H]1C2CC3CC1C[C@@](O)(C3)C2)c1cnc(N2CC[S+]([O-])CC2)nc1C1CCCC1 [Example 115, 4-Cyclopentyl-N-[(2r,5 s)-5-hydroxyadamantan-2-yl]-2-(1-oxo-1,4-thiazinan-4-yl)pyrimidine-5-carboxamide] | 93.4%
8 | CC(C)Oc1ncc(C(=O)N[C@H]2C3CC4CC2C[C@@](O)(C4)C3)c(C2CCC2)n1 [Example 107, 4-cyclobutyl-N-[(2r,5s)-5-hydroxyadamantan-2-yl]-2-isopropoxypyrimidine-5-carboxamide] | 97.3%
9 | C[C@@H]1CN(c2ncc(C(=O)N[C@H]3C4CC5CC3C[C@@](O)(C5)C4)c(C3CCC3)n2)C[C@H](C)O1 [Example 92, 4-cyclobutyl-2-[(2R,6S)-2,6-dimethylmorpholin-4-yl]-N-[(2r,5s)-5-hydroxyadamantan-2-yl]pyrimidine-5-carboxamide] | 97.1%
10 | Cc1ncc(C(=O)N[C@H]2C3CC4CC2C[C@@](O)(C4)C3)c(C2CC(F)(F)C2)n1 [Example 153, 4-(3,3-difluorocyclobutyl)-N-[(2s,5r)-5-hydroxyadamantan-2-yl]-2-methylpyrimidine-5-carboxamide] | 91.7%
11 | O=C(N[C@H]1C2CC3CC1C[C@@](O)(C3)C2)c1cnc(N2CCOC(CO)C2)nc1C1CC1 (some centres unmarked) [Example 59, 4-cyclopropyl-N-[(2r,5s)-5-hydroxyadamantan-2-yl]-2-[2-(hydroxymethyl)morpholin-4-yl]pyrimidine-5-carboxamide] | 95.6%
12 | O=C(c1cnc(N2CCOCC2)nc1C1CC1)N1CCC(c2cccnc2)C1 (centres unmarked) [Example 79, (4-Cyclopropyl-2-morpholinopyrimidin-5-yl)(3-(pyridin-3-yl)pyrrolidin-1-yl)methanone] | 89.7%
13 | CC(C)c1ncc(C(=O)N[C@H]2C3CC4CC2C[C@@](O)(C4)C3)c(C2CCCC2)n1 [Example 150, 4-Cyclopentyl-N-[(2r,5s)-5-hydroxyadamantan-2-yl]-2-propan-2-ylpyrimidine-5-carboxamide] | 96%
14 | O=C(N[C@H]1C2CC3CC1C[C@@](O)(C3)C2)c1cnc(N2CC[S+]([O-])CC2)nc1C1CC1 [Example 36, 4-Cyclopropyl-N-[(2r,5s)-5-hydroxyadamantan-2-yl]-2-(1-oxo-1,4-thiazinan-4-yl)pyrimidine-5-carboxamide] | 99.5%
15 | O=C(N[C@H]1C2CC3CC1C[C@@](O)(C3)C2)c1cnc(N2CCSCC2)nc1C1CCCC1 [Example 114, 4-Cyclopentyl-N-[(2s,5r)-5-hydroxyadamantan-2-yl]-2-thiomorpholin-4-ylpyrimidine-5-carboxamide] | 106%
16 | O=C(N[C@H]1C2CC3CC1C[C@@](O)(C3)C2)c1cnc(NC2CCC2)nc1C1CC1 [Example 54, (cyclobutylamino)-4-cyclopropyl-N-[(2r,5s)-5-hydroxyadamantan-2-yl]pyrimidine-5-carboxamide] | 102%
17 | Nc1ncc(C(=O)N[C@H]2C3CC4CC2C[C@@](O)(C4)C3)c(C2CCC2)n1 [Example 84, 2-Amino-4-cyclobutyl-N-[(2r,5s)-5-hydroxyadamantan-2-yl]pyrimidine-5-carboxamide] | 97.5%
18 | O=C(N[C@H]1C2CC3CC1C[C@@](O)(C3)C2)c1cnc(N2CCC2)nc1C1CCCC1 [Example 131, 2-(azetidin-1-yl)-4-cyclopentyl-N-[(2r,5s)-5-hydroxyadamantan-2-yl]pyrimidine-5-carboxamide] | 101%
19 | O=C(N[C@H]1C2CC3CC1C[C@@](O)(C3)C2)c1cnc(OC2CCC2)nc1C1CCC1 [Example 108, 4-cyclobutyl-2-(cyclobutyloxy)-N-[(2r,5s)-5-hydroxyadamantan-2-yl]pyrimidine-5-carboxamide] | 96%

Second part, the compound after the results:

Row | inhibition at 30 µM | Compound
20 | 102% | COc1nc(N2C[C@@H](C)O[C@@H](C)C2)ncc1C(=O)N[C@H]1C2CC3CC1C[C@@](O)(C3)C2 [Example 205, 2-[(2R,6S)-2,6-Dimethylmorpholin-4-yl]-N-[(2r,5 s)-5-hydroxytricyclo[3.3.1.13.7]dec-2-yl]-4-methoxypyrimidine-5-carboxamide]
21 | 97.9% | CC(C)Oc1ncc(C(=O)N[C@H]2C3CC4CC2C[C@@](O)(C4)C3)c([C@H]2CCCO2)n1 [Example 176]
22 | 102% | Cc1ncc(C(=O)N[C@H]2C3CC4CC2C[C@@](O)(C4)C3)c(CC(C)(C)C)n1 [Example 193, 4-(2,2-Dimethylpropyl)-N-[(2r,5s)-5-hydroxyadamantan-2-yl]-2-methylpyrimidine-5-carboxamide]
23 | 94% | O=C(N[C@H]1C2CC3CC1C[C@@](O)(C3)C2)c1cnc(N2CCS(=O)(=O)CC2)nc1C1CCCCC1 [Example 198, 4-Cyclohexyl-2-(1,1-dioxidothiomorpholin-4-yl)-N-[(2r,5s)-5-hydroxyadamantan-2-yl]pyrimidine-5-carboxamide]
24 | 105% | CC(C)Oc1ncc(C(=O)N[C@H]2C3CC4CC2C[C@@](O)(C4)C3)c(C2CCCO2)n1 (some centres unmarked) [Example 165]
25 | 95% | O=C(N[C@H]1C2CC3CC1C[C@@](O)(C3)C2)c1cnc(N2CCC2)nc1N1CCC1 [Example 201, 2,4-bis(azetidin-1-yl)-N-[(2r,5s)-5-hydroxyadamantan-2-yl]pyrimidine-5-carboxamide]
26 | 98.2% | CC(C)Nc1ncc(C(=O)N[C@H]2C3CC4CC2C[C@@](O)(C4)C3)c(C2CCCO2)n1 (some centres unmarked) [Example 159, N-[(2r,5s)-5-hydroxyadamantan-2-yl]-4-(oxolan-2-yl)-2-(propan-2-ylamino)pyrimidine-5-carboxamide]
27 | 102% | CSc1ncc(C(=O)N[C@H]2C3CC4CC2C[C@@](O)(C4)C3)c([C@H]2CCCO2)n1 [Example 166, N-[(2r,5s)-5-hydroxyadamantan-2-yl]-2-methylsulfanyl-4-[(2R)-oxolan-2-yl]pyrimidine-5-carboxamide]
28 | 52.8% | O=C(N[C@H]1C2CC3CC1C[C@@](O)(C3)C2)c1cnc(N2CC(F)(F)C2)nc1N1CC(F)(F)C1 [Example 200, 2,4-bis(3,3-difluoroazetidin-1-yl)-N-[(2r,5s)-5-hydroxyadamantan-2-yl]pyrimidine-5-carboxamide]
29 | 97.8% | O=C(N[C@H]1C2CC3CC1C[C@@](O)(C3)C2)c1cnc(N2CC[S+]([O-])CC2)nc1C1CCCCC1 [Example 197, 4-Cyclohexyl-N-[(2r,5 s)-5-hydroxyadamantan-2-yl]-2-(1-oxidothiomorpholin-4-yl)pyrimidine-5-carboxamide]
30 | 98.9% | O=C(N[C@H]1C2CC3CC1C[C@@](O)(C3)C2)c1cnc(NC2COC2)nc1C1CCCO1 (some centres unmarked) [Example 164, N-[(2r,5s)-5-hydroxyadamantan-2-yl]-2-(oxetan-3-ylamino)-4-(oxolan-2-yl)pyrimidine-5-carboxamide]
31 | 103% | CC(C)Nc1ncc(C(=O)N[C@H]2C3CC4CC2C[C@@](O)(C4)C3)c([C@H]2CCCO2)n1 [Example 171, N-[(2r,5s)-5-hydroxyadamantan-2-yl]-4-[(2R)-oxolan-2-yl]-2-(propan-2-ylamino)pyrimidine-5-carboxamide]
32 | 92.6% | O=C(N[C@H]1C2CC3CC1C[C@@](O)(C3)C2)c1cnc(NC2CC2)nc1C1CC(F)(F)C1 [Example 155, 2-(cyclopropylamino)-4-(3,3-difluorocyclobutyl)-N-[(2r,5s)-5-hydroxyadamantan-2-yl]pyrimidine-5-carboxamide]
33 | 106% | Cc1ncc(C(=O)N[C@H]2C3CC4CC2C[C@@](O)(C4)C3)c(OC2CCCC2)n1 [Example 204, 4-Cyclopentyloxy-N-[(2r,5s)-5-hydroxyadamantan-2-yl]-2-methylpyrimidine-5-carboxamide]
34 | 107% | CCOc1nc(OC2CCC2)ncc1C(=O)N[C@H]1C2CC3CC1C[C@@](O)(C3)C2 [Example 213, 2-(cyclobutyloxy)-4-ethoxy-N-[(2r,5s)-5-hydroxytricyclo[3.3.1.13,7]dec-2-yl]pyrimidine-5-carboxamide]
35 | 95% | O=C(N[C@H]1C2CC3CC1C[C@@](O)(C3)C2)c1cnc(NC2CCOCC2)nc1[C@H]1CCCO1 [Example 174, N-[(2r,5s)-5-hydroxyadamantan-2-yl]-2-(oxan-4-ylamino)-4-[(2R)-oxolan-2-yl]pyrimidine-5-carboxamide]
